This assay deals with Euphorbia geniculata. As to the kind of experiment: Growth-regulating action, preemergence, greenhouse (Example 35, Table 2). Format: in vivo. As to conditions: for growth height relative: control 100. The text has this: The vessels used for the experiments were plastic pots having a volume of 1,130 cm^3 (Table A) or paraffined paper cups having a volume of 170 cm^3 (Table B). The pots and cups were filled with a sandy loam. The seeds of the test plants-separated by species-were sown shallow. Preemergence treatment (soil treatment) was effected immediately after sowing and before germination of the seeds. Seeds lying on the surface came into contact with the active ingredients. Postemergence treatment (leaf treatment) took place at an average growth height of the plants (depending on the rate of growth) of from 6 to 10 cm. The substances were suspended, emulsified or dissolved in water as diluent and applied by means of fine nozzles. The vessels were kept in the greenhouse in a temperature range of 12° C. to 25° C., and were regularly sprinkler irrigated for the duration of the experiment. The observation period was 6 to 8 weeks.
Further experiments were carried out in the greenhouse under the condition described in Example 11. […] As the plants which were examined liked the warmth (Eupghorbia geniculate, Arachis hypogaea, Cynodon dactylon), they were kept at from 20°-30° C. Cynodon dactylon from seed was cut once and the young growth treated postemergence.

Molecules are shown by their SMILES.

With `FC(F)(F)c1cccc(N2C3C4CC(C5N=NC45)C32)c1` (stereo not drawn) [drawing 438], the Growth height by setting is: (0.25 kg/ha) 6 cm; (0.5 kg/ha) 5 cm; (1.0 kg/ha) 3 cm. In addition, the growth height relative by setting is: (0.25 kg/ha) 54; (0.5 kg/ha) 45; (1.0 kg/ha) 27.
As for `CN(C)NC(=O)CCC(=O)O` [drawing 439], the Growth height reads like this: (0.25 kg/ha) 12 cm; (0.5 kg/ha) 12 cm; (1.0 kg/ha) 10 cm. The growth height relative is listed as 109 (0.25 kg/ha), 109 (0.5 kg/ha) and 91 (1.0 kg/ha).

These data come from patent US4257941A, “Polycyclic nitrogen-containing compounds” (BASF Aktiengesellschaft, priority 1976, dated 1981).
